Experimental data reported in patent publication US10993957B2 (NuCana plc, priority 2011, dated 2021).
Entries after “also recorded” stand apart in the source; their conditions may differ. Like-named read-outs stand apart in the source and are kept apart here.

Experiments:
[1] = system: FM3A/0; test: Cytostatic assay, FM3A/0 cells; assay type: cell-based; settings: Mus musculus, FM3A/0; Table 1; read-out: CC50 FM3A/0
Experimental: The samples were assayed for biological activity versus a range of tumour cell lines with data recorded in Table 1 below. […] The cell lines employed were L1210/0 (a leukemia cell line), FM3A/0 (a breast cancer cell line), Cem/0 (an acute lymphoblastic leukemia cell line) and HeLa (a cervical cell line).

[2] = system: Cem/hEnt-1; test: Cytostatic assay, CEM cells containing the hEnt1 transporter; assay type: cell-based
Text: Data are mean (±SD) of at least two to four independent experiments. Table 8 identifies the phosphoramidate motif of compounds embodying the present invention, as discussed above with respect to Table 6, but with “Naph” standing for 1-naphthyl.

[3] = system: U87; test: Cytostatic assay, U87 cells; assay type: cell-based; settings: Homo sapiens, U-87 MG, read-out: IC50 U87
Experimental: (§2) All cells were maintained in Dulbecco's modified Eagle's medium (DMEM) (Invitrogen, Carlsbad, Calif.) with 10% foetal bovine serum (FBS) (Biochrom AG, Berlin, Germany), 10 mM Hepes and 1 mM Sodium Pyruvate (Invitrogen). Cells were grown at 37° C. in a humidified incubator with a gas phase of 5% CO2.
After 24 hours, an equal volume of fresh medium containing the test compounds was added. On day 5, cells were trypsinized and counted in a Coulter counter (Analis, Suarlée, Belgium). […] The cells were allowed to proliferate for 48 h (L1210) or 72 hours (CEM) and were then counted in a Coulter counter.

[4] = system: L1210.Hyor; test: Cytostatic assay, Mycoplasma hyorhinis-infected L1210 cells; settings: for % Retention: CC50 L1210 × 100 ÷ CC50 L1210/Hyor; for CC50 / IC50: Mus musculus; for CC50: L1210, read-out: CC50 L1210/Hyor
Procedure, shortened: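 Suspension L1210/0 murine leukaemia cells infected with M. hyorhinis, seeded at 60,000 cells/well with test compound in DMEM/10% FBS and grown 48 h at 37 °C, 5% CO2. Cell number counted by Coulter counter; activity also expressed as % retained versus uninfected cells.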

[5] = system: U87.Hyor; test: Cytostatic assay, Mycoplasma hyorhinis-infected U87 cells; assay type: cell-based, human; settings: for IC50: Homo sapiens, U-87 MG, read-out: IC50 U87.Hyor
Experimental: as §2
Monolayer cells (U87 and U87.Hyor) were seeded in 48-well microtiter plates (Nunc™, Roskilde, Denmark) at 10,000 cells/well. After 24 hours, an equal volume of fresh medium containing the test compounds was added. On day 5, cells were trypsinized and counted in a Coulter counter (Analis, Suarlée, Belgium). Suspension cells (L1210/0, L1210/TK^−, L1210.Hyor, CEM/0, CEM/TK^−) were seeded in 96-well microtiter plates (Nunc™) at 60,000 cells/well in the presence of a given amount of the test compounds. The cells were allowed to proliferate for 48 h (L1210) or 72 hours (CEM) and were then counted in a Coulter counter.

[6] = system: HeLa; test: Cytostatic assay, HeLa cells; assay type: cell-based; settings: Homo sapiens, HeLa; for CC50: Table 1, read-out: CC50 HeLa; for IC50: Table 6, read-out: IC50 HeLa
Text: (§1) The cell lines employed were L1210/0 (a leukemia cell line), FM3A/0 (a breast cancer cell line), Cem/0 (an acute lymphoblastic leukemia cell line) and HeLa (a cervical cell line).

[7] = target: Thymidine Phosphorylase purified from Escherichia coli (Escherichia coli, UniProt P07650); test: Phosphorylase assay by in situ 19F NMR
Chain of Thymidine Phosphorylase purified from Escherichia coli (P07650 whole entry): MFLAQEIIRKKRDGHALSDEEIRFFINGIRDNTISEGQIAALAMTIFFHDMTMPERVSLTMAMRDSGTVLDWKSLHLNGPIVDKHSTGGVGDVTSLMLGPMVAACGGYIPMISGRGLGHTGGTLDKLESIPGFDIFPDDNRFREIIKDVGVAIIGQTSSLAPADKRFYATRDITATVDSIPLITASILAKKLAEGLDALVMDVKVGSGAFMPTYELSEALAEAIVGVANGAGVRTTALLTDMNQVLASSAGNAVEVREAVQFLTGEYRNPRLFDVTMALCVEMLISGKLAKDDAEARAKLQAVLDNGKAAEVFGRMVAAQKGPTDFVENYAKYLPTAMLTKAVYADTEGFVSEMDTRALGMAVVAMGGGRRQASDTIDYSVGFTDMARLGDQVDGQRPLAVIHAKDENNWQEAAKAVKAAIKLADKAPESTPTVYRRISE
Experimental: Two potassium phosphate buffers at pH=7.4, 200 nM solution and 300 nM solution respectively, were used as phosphate donor. Units of enzyme were defined as the amount of enzyme required to hydrolyse about 0.25 mg of inosine per min used as standard. Assays were conducted for 30 minutes.

[8] = target: thymidylate synthase (TS) (Mus musculus, UniProt P07607); test: TS activity in intact L1210/0 cells (tritium release); assay type: cell-based, murine; settings: for increase of inhibition of 3H release upon longer preincubation times: up to 4 hr versus 30 min
Chain of thymidylate synthase (TS) (P07607 whole entry): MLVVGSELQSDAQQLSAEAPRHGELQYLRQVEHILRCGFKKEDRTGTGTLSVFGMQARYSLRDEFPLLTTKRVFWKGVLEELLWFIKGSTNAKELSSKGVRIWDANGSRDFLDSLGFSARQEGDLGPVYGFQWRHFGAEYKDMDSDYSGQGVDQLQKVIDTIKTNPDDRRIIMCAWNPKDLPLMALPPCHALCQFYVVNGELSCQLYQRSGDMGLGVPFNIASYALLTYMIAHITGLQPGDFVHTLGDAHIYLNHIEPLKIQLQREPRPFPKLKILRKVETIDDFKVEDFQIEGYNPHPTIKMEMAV
Experimental: The activity of TS in intact L1210/0 and L1210/TK^− cells was measured by evaluation of tritium release from [5-^3H]dUMP (formed in the cells from [5-^3H]dUrd or [5-^3H]dCyd) in the reaction catalysed by TS. This method has been described in detail by Balzarini & De Clercq (1984). […] After 30 min, 2 h and 4 h preincubation of the cells with the compounds at 37° C., 1 μCi of [5-^3H]dUrd or [5-^3H]dCyd was added to the cell cultures. After 30 min incubation, 100 μL of the cell suspensions were withdrawn and added to a cold suspension of 500 μL activated charcoal (VWR, Haasrode, Belgium) (100 mg/ml in TCA 5%). After 10 min, the suspension was centrifuged at 13,000 rpm for 10 min, after which the radioactivity in 400 μL supernatant was counted in a liquid sinctillator using OptiPhase HiSafe (Perkin Elmer, Waldham, Mass.).
The activity of TS in intact tumour cells can be directly monitored by measuring the tritium release in intact L1210/0 cell cultures that were exposed to [5-^3H]deoxyuridine ([5-^3H]dUrd) or [5-^3H]deoxycytidine ([5-^3H]dCyd). Indeed, after intracellular conversion of [5-^3H]dUrd or [5-^3H]dCyd to [5-^3H]dUMP, the C-5 tritium atom on the pyrimidine base is released during the TS-catalysed reductive methylation.

[9] = system: Cem/0; test: Cytostatic assay, CEM/0 cells; assay type: cell-based, human; settings: Homo sapiens, CCRF-CEM; for CC50: Table 1, read-out: CC50 Cem/0
Text: as §1

[10] = target: E. coli TP (Escherichia coli, UniProt P07650); test: Phosphorolysis by E. coli TP, HPLC; settings: 100 μM compound, room temperature, 0-40 min
Chain of E. coli TP (P07650 whole entry): as the sequence (P07650 whole entry) above
Experimental: Reaction mixtures containing 100 μM test compound and recombinant TP or UP (human TP: 8.6 ng/μL; E. coli TP: 3.0 ng/μL; human UP: 4 ng/mL) in a total volume of 500 μL reaction buffer (10 mM TrisHCl; 300 μM NaCl; 1 mM EDTA; 2 mM KH2PO4/K2HPO4) were incubated at room temperature. At different time points (i.e. 0, 20, 40 min) 100 μL aliquots of the reaction mixtures were withdrawn and heated at 95° C. for 3 min to inactivate the enzyme. The resulting reaction products were separated on a reverse-phase RP-8 column (Merck, Darmstadt, Germany) and quantified by HPLC analysis (Alliance 2690, Waters, Milford, Mass.). […] UV-based detection was performed at 267 nm. The separation of Urd from uracil was performed by a linear gradient from 100% separation buffer (see above) to 60% separation buffer+40% acetonitrile (3 min 100% separation buffer; 6 min linear gradient of 100% separation buffer to 60% separation buffer+40% acetonitrile; 6 min 60% separation buffer+40% acetonitrile, followed by equilibration at 100% separation buffer). UV-based detection was performed at 258 nm.

[11] = Homo sapiens, CCRF-CEM, read-out: IC50 Cem/hEnt-1
[12] = L1210/0, 30 min preincubation, both substrates, read-out: IC50 for tritium release from [5-3H]dCyd and [5-3H]dUrd
[13] = intact L1210/0 cells, 30 min exposure, read-out: IC50 Tritium release from dCyd*
[14] = intact L1210/0 cells, 30 min exposure, read-out: IC50 Tritium release from dUrd*
[15] = tritium release from [5-3H]dCyd, 4 hours preincubation, read-out: IC50 against TS, L1210/0

Row | Compound | CC50 [1] [nM] | IC50 [2, 11] [nM] | % Retention [4] [%] | CC50 [4] [nM] | CC50 [6] [nM] | IC50 [6] [nM] | IC50 [8, 12] [nM] | IC50 [8, 13] [nM] | IC50 [8, 14] [nM] | IC50 [8, 15] [nM] | increase of inhibition of 3H release upon longer preincubation times [8] [fold] | CC50 [9] [nM] | IC50 ([9]; Table 3, read-out: IC50 CEM/0) [nM] | IC50 ([9]; Table 6, read-out: IC50 Cem/0) [nM] | Phosphorolysis by E. coli TP [10] | further results
1 | O=c1[nH]c(=O)n([C@H]2C[C@H](O)[C@@H](CO)O2)cc1F [5-FdUrd, 5-fluoro-2′-deoxyuridine, reference compound] | 6.5 ± 5.5 | 40 ± 20 | 0.2 | 278 | 29 ± 7 | 50 ± 11 | 0.7 to 0.9 | 0.7 | 0.9 ± 0.2 | 0.3 | 2 | 28 ± 2 | 28 | 22 ± 6 | rapidly converted | IC50 ([3]; Table 3): 7 ± 1 nM; IC50 ([4]; L1210, read-out: IC50 L1210.Hyor, Table 3): 240 nM; loss of cytostatic activity against L1210.Hyor cells ([4]; versus L1210/0): 300 fold; loss of cytostatic activity in U87.Hyor versus uninfected U87 cells [5]: 400 fold; IC50 ([5]; Table 3): 3000 ± 550 nM; Conversion of substrate into the base 5-FU ([7]; potassium phosphate buffer increased to 205 nM): fully converted; Conversion of nucleoside into the free base 5FU ([7]; potassium phosphate buffer, pH 7.4, TP 20.7 UNI, 25° C.): 66%
2 | C[C@H](NP(=O)(OC[C@H]1O[C@@H](n2cc(F)c(=O)[nH]c2=O)CC1O)Oc1cccc2ccccc12)C(=O)OCc1ccccc1 (stereo partly drawn) [CPF 373, 5-Fluoro-2′deoxyuridine-5′-O-[1-naphthyl (benzoxy-L-alaninyl)] phosphate] | 59 ± 46 | 50 ± 20 | 44 | 25 | 65 ± 13 | 65 ± 13 | 160 to 190 | 190 ± 80 | 160 ± 50 | 13 | 10 | 89 ± 43 | 89 | 68 ± 35 | fully stable | IC50 ([2]; read-out: IC50 Cem/hEnt-1 + NBMPR, in the presence of NBMPR): 260 nM; IC50 ([2]; read-out: IC50 Cem/hEnt-1 + dipyridamole, in the presence of dipyridamole): 130 nM; IC50 [3]: 35 nM; IC50 ([4]; L1210, read-out: IC50 L1210.Hyor): 25 nM; IC50(L1210.Hyor)/IC50(L1210/0) ([4]; Table 7): 2.27; IC50 [5]: 39 nM; Stability in the presence of TP (19F NMR) ([7]; with and without TP, repeated after days): completely stable; also recorded: evident stability against TP enzymatic activity; inhibitory activity on tritium release less pronounced than that of 5-FdUrd ([8]; 30 min preincubation): ~200 fold
